Laboratory results as given in ChEMBL document CHEMBL1201862, “PubChem BioAssay data set” (2004).
Active and inactive are the calls of the source.

Assays:
[1] = inhibitors of Bluetongue virus cytopathic effect, confirmation, arbovirus, BSR cells (AID 1250); format: functional;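 note: protection from viral cytopathic effect measured as cell viability by ATP luminescence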
[2] = system: H9c2; test: cells; format: functional, cell-based; conditions: Rattus norvegicus, H9c2, Myocardium;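 note: confirmatory concentration-response retest of ultra-high-throughput screening hits for modulation of myocardial damage; cell death induced by hydrogen peroxide oxidative stress; compound pretreatment for 60 min then peroxide exposure for 2 h; potency is for protecting the cells against peroxide damage rather than for killing them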
[3] = Luminescence Cell-Based Dose-Confimation HTS to Identify Inhibitors of 5'UTR Stem-Loop Driven Alpha-Synuclein mRNA Translation in H4 Neuroglioblastoma Cells. [Related pubchem assays: 1827 (Project Summary), 1813 (Primary HTS)]; format: functional
[4] = biological target: T1, Heat shock 70 kDa protein 1A (Homo sapiens, UniProt P0DMV8); test: Hsp70 inhibitors, biochemical, TR-FRET (AID 786)
[5] = biological target: T1, Heat shock 70 kDa protein 1A; test: Hsp70 inhibitors, probe displacement, primary screen, biochemical, fluorescence polarization (AID 583)
[6] = biological target: Potassium voltage-gated channel subfamily KQT member 2 (Rattus norvegicus, UniProt O88943, W236L); test: KCNQ2 channel potentiators, dose response, mechanism study for KCNQ2 potentiator project, cell-based, automated electrophysiology (AID 2603); format: functional
[7] = biological target: T2, Replicative DNA helicase DnaB (Mycobacterium tuberculosis, UniProt P9WMR3); test: DnaB intein splicing inhibitors, dose response, biochemical, cell-free fluorescence (AID 449749); format: functional
T2 sequence (P9WMR3 whole entry): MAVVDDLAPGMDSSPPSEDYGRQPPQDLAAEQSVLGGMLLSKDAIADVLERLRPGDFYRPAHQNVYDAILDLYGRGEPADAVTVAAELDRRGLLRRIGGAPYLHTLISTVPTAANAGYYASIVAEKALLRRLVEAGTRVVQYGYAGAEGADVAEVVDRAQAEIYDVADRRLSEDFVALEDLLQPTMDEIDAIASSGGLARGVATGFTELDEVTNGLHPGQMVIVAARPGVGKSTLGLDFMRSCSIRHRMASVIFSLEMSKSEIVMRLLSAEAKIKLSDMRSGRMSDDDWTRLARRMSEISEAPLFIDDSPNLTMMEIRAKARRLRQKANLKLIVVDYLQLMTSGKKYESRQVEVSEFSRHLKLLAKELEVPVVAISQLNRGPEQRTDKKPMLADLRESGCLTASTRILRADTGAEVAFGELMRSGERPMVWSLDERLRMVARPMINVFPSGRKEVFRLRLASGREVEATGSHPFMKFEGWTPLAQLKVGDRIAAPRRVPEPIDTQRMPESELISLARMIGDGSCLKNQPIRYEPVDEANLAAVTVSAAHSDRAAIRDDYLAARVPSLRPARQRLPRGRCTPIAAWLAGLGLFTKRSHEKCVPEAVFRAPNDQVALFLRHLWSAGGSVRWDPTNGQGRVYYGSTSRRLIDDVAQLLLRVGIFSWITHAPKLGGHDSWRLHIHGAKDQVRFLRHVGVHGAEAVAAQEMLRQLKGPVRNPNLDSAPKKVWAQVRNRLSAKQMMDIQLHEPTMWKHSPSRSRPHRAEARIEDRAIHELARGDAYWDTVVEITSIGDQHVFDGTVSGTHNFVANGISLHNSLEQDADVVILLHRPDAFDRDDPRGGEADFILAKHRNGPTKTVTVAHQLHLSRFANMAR

[8] = system: Vero; test: Vero cell cytotoxicity, cytotoxicity control for flavivirus capping enzyme inhibitors (AID 588742); format: functional; conditions: Chlorocebus sabaeus
[9] = biological target: T3, Protein RecA (Mycobacterium tuberculosis, UniProt P9WHJ3); test: Fluorescence Cell-Free Homogeneous Dose Retest to Identify Inhibitors of RecA-Intein Splicing Activity. [Related pubchem assays (depositor defined):AID2097, AID2223, AID489010, AID492950]; format: functional
T3 sequence (P9WHJ3 whole entry): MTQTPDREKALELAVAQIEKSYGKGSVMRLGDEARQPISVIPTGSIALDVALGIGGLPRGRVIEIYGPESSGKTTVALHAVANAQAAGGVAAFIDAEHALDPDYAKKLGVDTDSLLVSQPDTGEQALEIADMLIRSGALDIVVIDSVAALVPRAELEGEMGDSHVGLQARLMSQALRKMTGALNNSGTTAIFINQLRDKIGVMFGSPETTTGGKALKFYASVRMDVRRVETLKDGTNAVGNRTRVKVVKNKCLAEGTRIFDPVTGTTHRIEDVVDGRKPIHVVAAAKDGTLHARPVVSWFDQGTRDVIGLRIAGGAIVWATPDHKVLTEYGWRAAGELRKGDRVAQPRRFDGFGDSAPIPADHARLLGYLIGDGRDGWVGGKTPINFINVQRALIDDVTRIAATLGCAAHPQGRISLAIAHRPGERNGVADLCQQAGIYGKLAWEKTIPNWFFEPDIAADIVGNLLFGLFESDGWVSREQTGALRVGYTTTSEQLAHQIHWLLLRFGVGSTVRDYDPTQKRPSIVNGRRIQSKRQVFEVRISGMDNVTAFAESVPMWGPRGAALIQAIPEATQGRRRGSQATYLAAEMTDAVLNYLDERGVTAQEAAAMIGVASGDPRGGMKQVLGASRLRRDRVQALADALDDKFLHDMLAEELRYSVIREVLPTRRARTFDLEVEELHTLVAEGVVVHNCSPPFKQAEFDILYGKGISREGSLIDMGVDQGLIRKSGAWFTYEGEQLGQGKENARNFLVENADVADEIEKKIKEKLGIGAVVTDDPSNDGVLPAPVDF

[10] = biological target: Genome polyprotein (dengue virus type 2, UniProt P29990); test: Dengue-2 NS5 methyltransferase inhibitors, primary screen, biochemical, confirmation dose response (AID 588689); format: functional
[11] = Shn3 3'UTR reporter inhibitors, dose response, cell-based, Clone20 osteoblasts, firefly luciferase, cherry-picked (AID 624132); format: functional;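 note: firefly luciferase luminescence from reporter carrying the Shn3 3'UTR in osteoblasts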
[12] = HepG2 cell cytotoxicity, dose response, cytotoxicity control for Shn3 inhibitor project, CellTiter-Glo, cherry-picked (AID 624134); format: functional, cell-based
[13] = control 3'UTR Renilla luciferase suppression, dose response, counter-screen for Shn3 inhibitor project, cell-based, Clone20-Shn3RL, cherry-picked (AID 624133); format: functional
[14] = biological target: T4, Hepatocyte nuclear factor 4-alpha (Homo sapiens, UniProt P41235); format: functional, cell-based;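 note: biochemical luminescence-based dose-response counterscreen measuring inhibition of HNF4 dimerization, run alongside a screen for blockers of ABHD5–perilipin-5 interaction; split luciferase complementation of HNF4 fusion proteins in cell lysate measuring dimerization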
T4 sequence (P41235 whole entry): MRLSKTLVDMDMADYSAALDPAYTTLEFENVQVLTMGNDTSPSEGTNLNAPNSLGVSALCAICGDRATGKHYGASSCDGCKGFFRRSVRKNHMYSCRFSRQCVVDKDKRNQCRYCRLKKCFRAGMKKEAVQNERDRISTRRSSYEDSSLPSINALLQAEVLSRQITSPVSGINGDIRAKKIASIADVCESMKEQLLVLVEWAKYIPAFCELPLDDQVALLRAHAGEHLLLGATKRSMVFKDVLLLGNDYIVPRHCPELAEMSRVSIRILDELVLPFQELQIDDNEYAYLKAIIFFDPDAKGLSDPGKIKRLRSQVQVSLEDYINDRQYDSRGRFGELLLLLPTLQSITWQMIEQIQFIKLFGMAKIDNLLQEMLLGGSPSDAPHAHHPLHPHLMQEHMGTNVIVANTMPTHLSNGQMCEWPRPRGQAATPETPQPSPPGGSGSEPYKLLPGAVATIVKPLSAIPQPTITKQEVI

T1 sequence (P0DMV8 whole entry): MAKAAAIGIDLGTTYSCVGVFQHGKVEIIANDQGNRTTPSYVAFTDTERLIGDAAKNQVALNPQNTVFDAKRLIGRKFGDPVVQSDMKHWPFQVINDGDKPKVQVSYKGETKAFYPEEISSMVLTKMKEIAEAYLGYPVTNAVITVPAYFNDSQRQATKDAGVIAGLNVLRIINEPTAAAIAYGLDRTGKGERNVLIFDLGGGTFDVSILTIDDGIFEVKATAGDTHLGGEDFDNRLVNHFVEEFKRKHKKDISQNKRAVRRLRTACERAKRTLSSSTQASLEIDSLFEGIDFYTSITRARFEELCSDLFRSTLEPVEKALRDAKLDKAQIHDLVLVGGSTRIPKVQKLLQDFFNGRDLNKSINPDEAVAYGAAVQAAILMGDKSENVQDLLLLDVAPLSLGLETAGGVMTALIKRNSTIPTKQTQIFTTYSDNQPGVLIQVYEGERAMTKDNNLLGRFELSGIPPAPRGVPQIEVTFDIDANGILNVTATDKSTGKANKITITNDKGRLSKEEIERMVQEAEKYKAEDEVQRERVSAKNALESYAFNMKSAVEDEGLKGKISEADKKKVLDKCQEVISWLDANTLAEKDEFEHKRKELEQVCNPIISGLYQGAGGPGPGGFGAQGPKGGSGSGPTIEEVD
Chain of Potassium voltage-gated channel subfamily KQT member 2 (O88943 whole entry W236L): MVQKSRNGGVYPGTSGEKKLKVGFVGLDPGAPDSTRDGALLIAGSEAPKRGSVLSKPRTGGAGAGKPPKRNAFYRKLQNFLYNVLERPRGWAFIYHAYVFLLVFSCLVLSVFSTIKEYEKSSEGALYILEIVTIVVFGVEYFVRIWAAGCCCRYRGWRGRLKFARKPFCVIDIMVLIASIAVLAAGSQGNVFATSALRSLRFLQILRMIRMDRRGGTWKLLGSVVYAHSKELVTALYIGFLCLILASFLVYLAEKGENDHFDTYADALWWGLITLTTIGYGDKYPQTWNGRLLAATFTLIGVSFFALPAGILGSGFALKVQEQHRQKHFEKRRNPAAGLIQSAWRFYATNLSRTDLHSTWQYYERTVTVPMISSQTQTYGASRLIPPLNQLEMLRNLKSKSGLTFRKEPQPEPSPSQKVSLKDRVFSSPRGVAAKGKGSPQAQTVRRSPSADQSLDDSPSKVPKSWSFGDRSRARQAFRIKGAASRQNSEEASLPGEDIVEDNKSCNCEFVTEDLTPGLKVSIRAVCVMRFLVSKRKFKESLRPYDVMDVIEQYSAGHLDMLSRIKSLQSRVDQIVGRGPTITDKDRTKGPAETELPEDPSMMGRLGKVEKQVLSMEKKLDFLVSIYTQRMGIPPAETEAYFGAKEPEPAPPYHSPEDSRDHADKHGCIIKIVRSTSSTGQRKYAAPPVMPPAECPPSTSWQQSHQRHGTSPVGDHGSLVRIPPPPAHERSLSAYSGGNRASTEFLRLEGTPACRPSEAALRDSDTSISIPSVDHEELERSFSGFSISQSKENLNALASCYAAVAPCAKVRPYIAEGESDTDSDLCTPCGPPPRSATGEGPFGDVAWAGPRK
Chain of Genome polyprotein (P29990 2492-3391 limits assumed): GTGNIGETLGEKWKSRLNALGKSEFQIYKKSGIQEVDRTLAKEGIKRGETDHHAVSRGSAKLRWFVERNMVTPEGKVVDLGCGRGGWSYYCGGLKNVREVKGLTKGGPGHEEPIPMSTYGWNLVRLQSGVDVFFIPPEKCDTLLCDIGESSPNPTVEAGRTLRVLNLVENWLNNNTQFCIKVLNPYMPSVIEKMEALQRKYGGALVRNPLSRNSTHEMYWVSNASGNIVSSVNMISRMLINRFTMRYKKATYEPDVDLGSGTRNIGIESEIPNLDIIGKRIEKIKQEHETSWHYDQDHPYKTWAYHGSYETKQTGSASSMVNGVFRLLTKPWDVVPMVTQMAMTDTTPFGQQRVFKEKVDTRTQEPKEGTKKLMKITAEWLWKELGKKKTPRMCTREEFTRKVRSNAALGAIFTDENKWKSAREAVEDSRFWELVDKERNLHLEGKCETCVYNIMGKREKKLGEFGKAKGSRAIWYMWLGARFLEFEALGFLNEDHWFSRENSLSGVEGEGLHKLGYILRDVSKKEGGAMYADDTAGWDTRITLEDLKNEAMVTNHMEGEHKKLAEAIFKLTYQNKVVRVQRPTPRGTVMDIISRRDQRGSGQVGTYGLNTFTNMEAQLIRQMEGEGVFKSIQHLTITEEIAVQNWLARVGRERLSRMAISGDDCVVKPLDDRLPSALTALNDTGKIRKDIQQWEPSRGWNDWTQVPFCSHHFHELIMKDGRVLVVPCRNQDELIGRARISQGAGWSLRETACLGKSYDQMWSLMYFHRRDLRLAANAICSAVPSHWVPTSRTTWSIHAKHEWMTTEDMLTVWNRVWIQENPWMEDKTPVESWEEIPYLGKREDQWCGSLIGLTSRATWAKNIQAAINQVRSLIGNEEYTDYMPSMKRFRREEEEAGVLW

## COc1ccc(-c2nc(NC(=O)c3ccc(OCC(=O)N4CCOCC4)c(OC)c3)sc2C)cc1
[1]
  IC50: 83.5 µM (active)
[2]
  IC50: > 79 µM (inactive)

## CN(C)c1nc(N)nc(CSc2nnnn2-c2ccc(Cl)cc2)n1
[3]
  EC50: > 100 µM (not active)

## CC(C)(C)n1nnnc1C(c1ccc2ncccc2c1)N1CCSCC1 (centres undefined)
[4]
  IC50: > 100 µM (not active)
[5]
  IC50: > 100 µM (not active)

## CSc1nnc(NC(=O)c2nc(S(=O)(=O)Cc3ccc(C)cc3)ncc2Cl)s1
[6]
  EC50: 34.9 µM (active)
[7]
  AC50: 5.31 µM (active)
[8]
  CC50: 30.9 µM (active)
[9]
  EC50: 3.26 µM (active)
[10]
  IC50: 40.5 µM (active)
[11]
  AC50: 3.18 µM (active)
[12]
  AC50: > 70 µM (inactive)
[13]
  AC50: 11.1 µM (active)
[14]
  IC50: 4.93 µM (active)
